Structures can show the parent of a compound that is named as a salt.
Target: Steroidogenic factor 1 (Homo sapiens, UniProt Q13285)
Assay: blockers of SF-1 LBD reporter transcription – cell-based, CHO-K1, Gal4-SF-1 LBD, luciferase luminescence, dose response (AID 600)
[1] = inactive by the depositor's call

Steroidogenic factor 1, sequence (Q13285 whole entry, the tested form may be a part): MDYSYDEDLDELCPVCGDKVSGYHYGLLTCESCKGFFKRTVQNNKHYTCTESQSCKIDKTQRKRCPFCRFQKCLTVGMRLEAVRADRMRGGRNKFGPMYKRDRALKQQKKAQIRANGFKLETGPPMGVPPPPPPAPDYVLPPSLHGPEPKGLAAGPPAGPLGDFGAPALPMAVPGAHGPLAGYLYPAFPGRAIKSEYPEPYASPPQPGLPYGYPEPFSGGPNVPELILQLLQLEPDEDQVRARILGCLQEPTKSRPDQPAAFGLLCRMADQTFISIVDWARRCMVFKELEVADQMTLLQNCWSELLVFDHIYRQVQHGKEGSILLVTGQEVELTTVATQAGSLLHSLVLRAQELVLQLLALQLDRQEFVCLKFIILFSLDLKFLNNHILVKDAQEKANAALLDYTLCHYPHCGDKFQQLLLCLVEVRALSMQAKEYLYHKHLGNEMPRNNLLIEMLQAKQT

IC50 | IC50 [1] | SMILES
> 11 µM | – | Cc1nc2nc(-c3ccccc3)cn2nc1C [2,3-dimethyl-6-phenyl-imidazo[1,2-b][1,2,4]triazine]
1.51 µM | – | O=NC1c2cc(S(=O)(=O)N3CCCCC3)ccc2-c2ccc(S(=O)(=O)N3CCCCC3)cc21 [2,7-Bis-(piperidine-1-sulfonyl)-fluoren-9-one oxime]
7.92 µM | – | COc1cc(C2c3ccc(N)cc3OC(=N)C2C#N)cc(OC)c1OC (centres undefined) [2,7-bis(azanyl)-4-(3,4,5-trimethoxyphenyl)-4H-chromene-3-carbonitrile]
> 3.67 µM | – | Cn1c(SC2=CS(=O)(=O)c3ccccc32)nc2ccccc21 [2-(1,1-Dioxo-1H-1lambda*6*-benzo[b]thiophen-3-ylsulfanyl)-1-methyl-1H-benzoimidazole]
2.12 µM | – | O=c1c2ccccc2cnn1-c1nc2ccccc2s1 [2-(1,3-benzothiazol-2-yl)-1-phthalazinone]
7.53 µM | – | CC1(C)CC(=O)C2=C(C1)Oc1nc3ccccc3cc1C2C(C#N)C#N (centres undefined) [2-(1-keto-3,3-dimethyl-4,12-dihydro-2H-chromeno[2,3-b]quinolin-12-yl)malononitrile]
– | 10.4 µM | Cn1c(-c2ccco2)nc2cc3ccccc3cc21 [2-(2-furanyl)-3-methylbenzo[f]benzimidazole]
– | 19.7 µM | COc1ccccc1CC(=O)N1CCN(c2cccc(C(F)(F)F)c2)CC1 [2-(2-methoxyphenyl)-1-[4-[3-(trifluoromethyl)phenyl]-1-piperazinyl]ethanone]
5.34 µM | – | c1ccc2c(c1)CCN(c1nc3cc4c(cc3s1)OCCO4)C2 [2-(3,4-dihydro-1H-isoquinolin-2-yl)-6,7-dihydro-[1,4]dioxino[2,3-f][1,3]benzothiazole]
2.44 µM | – | COc1ccc(CC(=O)Nc2ccc(-c3nnc(-c4ccccc4)o3)cc2)cc1OC [2-(3,4-dimethoxyphenyl)-N-[4-(5-phenyl-1,3,4-oxadiazol-2-yl)phenyl]acetamide]
6.88 µM | – | CCOC(=O)c1cnc(-n2nc(C)cc2C)nc1NC(C)c1ccccc1 (centres undefined) [2-(3,5-dimethyl-1-pyrazolyl)-4-(1-phenylethylamino)-5-pyrimidinecarboxylic acid ethyl ester]
7.83 µM | – | CCOc1ccc(Nc2cc(C)nc(-n3nc(C)cc3C)n2)cc1 [2-(3,5-dimethyl-1-pyrazolyl)-N-(4-ethoxyphenyl)-6-methyl-4-pyrimidinamine]
– | 12.5 µM | COc1ccc(Nc2cc(C)nc(-n3nc(C)cc3C)n2)cc1 [2-(3,5-dimethyl-1-pyrazolyl)-N-(4-methoxyphenyl)-6-methyl-4-pyrimidinamine]
> 3.67 µM | – | Nc1cccc(-c2nc3ccc(N)cc3s2)c1 [2-(3-Amino-phenyl)-benzothiazol-6-ylamine]
– | 34.3 µM | Cc1csc(NC(=O)Cc2nn(C)c(=O)c3ccccc23)n1 [2-(3-methyl-4-oxidanylidene-phthalazin-1-yl)-N-(4-methyl-1,3-thiazol-2-yl)ethanamide]
2.64 µM | – | Cc1nnc(Sc2nc(Sc3nnc(C)s3)nc(N3CCN(C)CC3)n2)s1 [2-(4-Methyl-piperazin-1-yl)-4,6-bis-(5-methyl-[1,3,4]thiadiazol-2-ylsulfanyl)-[1,3,5]triazine]
8.2 µM | – | Cc1cc(C)n(-c2nc(NC(C)(C)C)nc(NC(C)(C)C)n2)n1 [2-N,4-N-ditert-butyl-6-(3,5-dimethylpyrazol-1-yl)-1,3,5-triazine-2,4-diamine]

The next lines start with the compound.

SMILES | IC50 | IC50 [1]
CCCCn1c2c(c(=O)n(C)c1=O)C(c1ccc(OC)cc1)N1CCCCCC1=N2 (centres undefined) [1-butyl-5-(4-methoxyphenyl)-3-methyl-5,7,8,9,10,11-hexahydropyrimido[3,4]pyrimid[4,5-a]azepine-2,4-quinone] | 8.03 µM | –
O=C(Nc1ccccc1NC(=O)NC1CCCCC1)NC1CCCCC1 [1-cyclohexyl-3-[2-(cyclohexylcarbamoylamino)phenyl]urea] | 1.64 µM | –
C=CS(=O)(=O)c1ccc(Oc2ccc(S(=O)(=O)C=C)cc2)cc1 [1-ethenylsulfonyl-4-(4-ethenylsulfonylphenoxy)benzene] | 4.19 µM | –
CCn1nc(-c2cccs2)nc2c(=O)n(C)c(=O)nc1-2 [1-ethyl-6-methyl-3-thiophen-2-yl-pyrimido[5,4-e][1,2,4]triazine-5,7-dione] | 2.65 µM | –
[O-][N+]1=c2ccc(Nc3ccccc3)cc2=NC12CCCCC2 [1-oxido-N-phenyl-5-spiro[benzimidazol-1-ium-2,1'-cyclohexane]amine] | 6.49 µM | –
c1ccc(-n2ncc3c(N4CCCCC4)ncnc32)cc1 [1-phenyl-4-(1-piperidinyl)pyrazolo[3,4-d]pyrimidine] | 5.86 µM | –
Cc1ccc(-c2cn3nc(C)c(C)nc3n2)cc1 [2,3-dimethyl-6-(4-methylphenyl)imidazo[1,2-b][1,2,4]triazine] | – | 20 µM
COc1ccc(C(=O)Nc2ccc(C)cn2)c(OC)c1 [2,4-dimethoxy-N-(5-methylpyridin-2-yl)benzamide] | 3.4 µM | –
COc1cc(NS(=O)(=O)c2ccc(C)cc2C)cc(OC)c1OC [2,4-dimethyl-N-(3,4,5-trimethoxyphenyl)benzenesulfonamide] | > 11 µM | –
O=C(c1ccccc1)C(CCC(CN1CCOCC1)C(=O)c1ccccc1)CN1CCOCC1 (centres undefined) [2,5-bis(4-morpholinylmethyl)-1,6-diphenylhexane-1,6-dione;hydrochloride] | 10.6 µM | –
Cc1oc2cc3c(C(=O)OCCN(C)C)c(C)oc3cc2c1C(=O)OCCN(C)C [2,6-Dimethyl-benzo[1,2-b;4,5-b']difuran-3,7-dicarboxylic acid bis-(2-dimethylamino-ethyl) ester] | 0.813 µM | –
c1ccc(-c2cccc(-c3ccccn3)n2)nc1 [2,6-bis(2-pyridinyl)pyridine] | – | 10.3 µM
c1ccc(-c2cn3nc(-c4ccccc4)sc3n2)cc1 [2,6-diphenylimidazo[2,1-b][1,3,4]thiadiazole] | 2.02 µM | –
c1ccc2nc(-c3nc4ccccc4o3)ccc2c1 [2-(1,3-benzoxazol-2-yl)quinoline] | 6.81 µM | –
COc1ccc(OC)c(NC(=O)CSc2nnnn2-c2ccc3c(c2)OCO3)c1 [2-(1-Benzo[1,3]dioxol-5-yl-1H-tetrazol-5-ylsulfanyl)-N-(2,5-dimethoxy-phenyl)-acetamide] | 2.35 µM | –
CCn1c(C)nc2cc(-c3nc4n(n3)Cc3ccccc3-4)ccc21 [2-(1-ethyl-2-methyl-5-benzimidazolyl)-5H-[1,2,4]triazolo[5,1-a]isoindole] | < 0.00503 µM | –
CCN1C=CC(=C2C(=O)c3ccccc3C2=O)C=C1 [2-(1-ethyl-4-pyridinylidene)indene-1,3-dione] | 0.954 µM | –
O=C1c2ccccc2C(=O)C1c1nccc2ccccc12 [2-(1-isoquinolinyl)indene-1,3-dione] | 4.03 µM | –
c1c2c(cc3sc(N4CCCCC4)nc13)OCCO2 [2-(1-piperidinyl)-6,7-dihydro-[1,4]dioxino[2,3-f][1,3]benzothiazole] | 3.91 µM | –

SMILES | IC50 | IC50 [1]
CCCN1C=CC(=C2C(=O)c3ccccc3C2=O)C=C1 [2-(1-propyl-4-pyridinylidene)indene-1,3-dione] | 0.363 µM | –
Cc1cnc(NC(=O)COc2ccccc2Cl)s1 [2-(2-chloranylphenoxy)-N-(5-methyl-1,3-thiazol-2-yl)ethanamide] | > 1.22 µM | –
CCCOc1ccc(-c2nnc(-c3ccco3)o2)cc1 [2-(2-furanyl)-5-(4-propoxyphenyl)-1,3,4-oxadiazole] | > 3.67 µM | –
CCOc1ccc(-c2nnc(-c3ccco3)o2)cc1 [2-(2-furyl)-5-p-phenetyl-1,3,4-oxadiazole] | 5.29 µM | –
COc1ccc(CC(=O)Nc2cccc(-c3nnc(-c4cccc(C)c4)o3)c2)cc1OC [2-(3,4-dimethoxyphenyl)-N-[3-[5-(3-methylphenyl)-1,3,4-oxadiazol-2-yl]phenyl]acetamide] | > 3.67 µM | –
O=C(CSC1=NCCS1)Nc1ccnc2ccccc12 [2-(4,5-dihydro-1,3-thiazol-2-ylsulfanyl)-N-quinolin-4-yl-ethanamide] | – | 15.1 µM
O=C(Cc1ccc(Cl)cc1)Nc1ccc(-c2nnc(-c3ccco3)o2)cc1 [2-(4-chlorophenyl)-N-[4-[5-(2-furanyl)-1,3,4-oxadiazol-2-yl]phenyl]acetamide] | 9.18 µM | –
COc1ccc(-c2cc3nc4n(c(=O)c3s2)CCC4)cc1 [2-(4-methoxyphenyl)-6,7-dihydropyrrolo[1,2-a]thieno[3,2-d]pyrimidin-9(5H)-one] | 4.32 µM | –
COc1ccc(-c2cc3nc4n(c(=O)c3s2)CCOC4)cc1 [2-(4-methoxyphenyl)-7,8-dihydro-5H-thieno[1,2]pyrimido[4,5-a][1,4]oxazin-10-one] | 6.7 µM | –
COc1ccc(CC(=O)Nc2ccc(-c3nnc(-c4ccccc4)o3)cc2)cc1 [2-(4-methoxyphenyl)-N-[4-(5-phenyl-1,3,4-oxadiazol-2-yl)phenyl]acetamide] | – | 18.3 µM
CC1CCN(c2nc3ccc(C(=O)O)cc3s2)CC1 [2-(4-methyl-1-piperidinyl)-1,3-benzothiazole-6-carboxylic acid] | 2.25 µM | –
c1c2c(cc3sc(N4CCOCC4)nc13)OCCO2 [2-(4-morpholinyl)-6,7-dihydro-[1,4]dioxino[2,3-f][1,3]benzothiazole] | > 3.67 µM | –
Cc1ccc(N2C(=O)c3ccccc3C2O)nc1 (centres undefined) [2-(5-methylpyridin-2-yl)-3-oxidanyl-3H-isoindol-1-one] | 8.67 µM | –
CCOc1ccc(-c2nc(CSCC(=O)NCc3ccco3)c(C)o2)cc1 [2-({[2-(4-ethoxyphenyl)-5-methyl-1,3-oxazol-4-yl]methyl}thio)-N-(2-furylmethyl)acetamide] | 0.189 µM | –
CCOc1ccc(-c2nc(CSCC(=O)NCCN3CCOCC3)c(C)o2)cc1 [2-({[2-(4-ethoxyphenyl)-5-methyl-1,3-oxazol-4-yl]methyl}thio)-N-(2-morpholin-4-ylethyl)acetamide] | 4.36 µM | –
CCc1ccc(-c2nc(CSCC(=O)NCCCN3CCCC3=O)c(C)o2)cc1 [2-({[2-(4-ethylphenyl)-5-methyl-1,3-oxazol-4-yl]methyl}thio)-N-[3-(2-oxopyrrolidin-1-yl)propyl]acetamide] | 4.32 µM | –
COc1cc(CC(NC(C)=O)C(=O)NC2CCN(c3nc(C)cc(C)c3C#N)CC2)cc(OC)c1 (centres undefined) [2-Acetylamino-N-(3'-cyano-4',6'-dimethyl-3,4,5,6-tetrahydro-2H-[1,2']bipyridinyl-4-yl)-3-(3,5-dimethoxy-phenyl)-propionamide] | > 33 µM | –
Nc1nc(Cl)nc2c1ncn2[C@H]1C[C@H](O)[C@@H](CO)O1 [2-CHLORO-2'-DEOXYADENOSINE] | 0.454 µM | –

From BindingDB's records for doi:10.7270/Q2319T8T (The Scripps Research Institute Molecular Screening Center, 2007)
